Laboratory results reported in ChEMBL document CHEMBL1145703, “Flavonol and chalcone ester glycosides from Bidens leucantha” (J Nat Prod, 1997).
Converted amounts (≈) assume the structure as drawn. The source made the active and inactive calls. No cut-off for these calls is given here.

Key:
[1] = system: Human immunodeficiency virus 1; test: Antiviral activity against HIV1 MN infected in human C8166 cells assessed as reduction in Ag gp120 production by ELISA; format: functional, organism-based; conditions: Human immunodeficiency virus 1, MN
[2] = Cytotoxicity against human C8166 cells by XTT-formazan method; format: cell-based; conditions: read-out: TC50 (the source's name)
[3] = Selectivity index, ratio of EC50 for HIV1 MN infection in human C8166 cells to TC50 for human C8166 cells; format: functional
[4] = system: Human immunodeficiency virus 1; test: Antiviral activity against HIV1 MN infection in human C8166 cells after 2 days by syncitium-forming assay; format: functional, organism-based
[5] = system: C8166; test: Cytotoxicity against human C8166 cells at 250 ug/ml by XTT-formazan method; format: cell-based

| EC50 [1] | SMILES | CC50 [2] | Selectivity Index [3] | Activity [4] | Activity [5] |
| --- | --- | --- | --- | --- | --- |
| 50 µg/mL (≈ 86.1 µM) | O=C(/C=C/c1ccc(O)cc1)OC[C@H]1O[C@@H](Oc2ccc(C(=O)/C=C/c3ccc(O)cc3)c(O)c2O)[C@H](O)[C@@H](O)[C@@H]1O | 250 µg/mL (≈ 431 µM) | 12.5 | – | – |
| 10 µg/mL (≈ 15.7 µM) | CC(=O)O[C@H]1[C@H](O)[C@@H](O)[C@H](Oc2ccc(C(=O)/C=C/c3ccc(O)c(O)c3)c(O)c2O)O[C@@H]1COC(=O)/C=C/c1ccc(O)cc1 | 100 µg/mL (≈ 157 µM) | >10 | – | – |
| – | COc1c(-c2ccc(O)c(O)c2)oc2cc(O[C@@H]3O[C@H](CO[C@@H]4O[C@@H](C)[C@H](O)[C@@H](O)[C@H]4O)[C@@H](O)[C@H](O)[C@H]3O)cc(O)c2c1=O | – | – | inactive | – |
| – | COc1ccc(-c2oc3cc(O[C@@H]4O[C@H](CO[C@@H]5O[C@@H](C)[C@H](O)[C@@H](O)[C@H]5O[C@@H]5O[C@@H](C)[C@H](O)[C@@H](O)[C@H]5O)[C@@H](O)[C@H](O)[C@H]4O)cc(O)c3c(=O)c2OC)cc1O | – | – | inactive | – |
| – | COc1ccc(-c2oc3cc(O[C@@H]4O[C@H](CO[C@@H]5O[C@@H](C)[C@H](O)[C@@H](O)[C@H]5O)[C@@H](O)[C@H](O)[C@H]4O)cc(O)c3c(=O)c2OC)cc1O | – | – | inactive | – |
| 20 µg/mL (≈ 34.7 µM) | CC(=O)OC[C@H]1O[C@@H](Oc2ccc(C(=O)/C=C/c3ccc(O)c(O)c3)c(O)c2O)[C@H](O)[C@@H](OC(C)=O)[C@@H]1OC(C)=O | – | 12.5 | – | Non-toxic |
| – | COc1ccc(-c2oc3cc(O[C@@H]4O[C@H](CO[C@@H]5O[C@@H](C)[C@H](O)[C@@H](O)[C@H]5O)[C@@H](O)[C@H](O)[C@H]4O[C@@H]4O[C@H](CO)[C@@H](O)[C@H](O)[C@H]4O)cc(O)c3c(=O)c2OC)cc1O | – | – | inactive | – |
